PubChem BioAssay (NCI)
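All cell lines were grown in 96-well plates and treated with compound for 48 hours. TGI marks complete inhibition of growth.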

Key:
Assay in all cases: DTP human tumour cell line panel, 48 h
MDA-N = system: MDA-N
SK-MEL-5 melanoma = system: SK-MEL-5 melanoma
KM12 colon = system: KM12 colon
CAKI-1 renal = system: CAKI-1 renal
HS 578T breast = system: HS 578T breast
IGROV1 ovarian = system: IGROV1 ovarian
SN12C renal = system: SN12C renal
HL-60(TB) leukemia = system: HL-60(TB) leukemia
EKVX NSCLC = system: EKVX NSCLC
LOX IMVI melanoma = system: LOX IMVI melanoma
HCC-2998 colon = system: HCC-2998 colon

SMILES | TGI (MDA-N) [µM] | TGI (SK-MEL-5 melanoma) [µM] | TGI (KM12 colon) [µM] | TGI (CAKI-1 renal) [µM] | TGI (HS 578T breast) [µM] | TGI (IGROV1 ovarian) [µM] | TGI (SN12C renal) [µM] | TGI (HL-60(TB) leukemia) [µM] | TGI (EKVX NSCLC) [µM] | TGI (LOX IMVI melanoma) [µM] | TGI (HCC-2998 colon) [µM]
CC1(C)CC2(C)CC1CC2(O)c1ccccc1 (centres undefined) | > 100 | > 100 | > 100 | > 100 | > 100 | > 100 | > 100 | > 100 | – | – | –
CCC(COC(=O)CC[C@@H](NC(=O)C(C)NC(=O)C(C)OC1C(O)C(CO)OC(OCc2ccccc2)C1NC(C)=O)C(N)=O)NC1c2ccccc2Nc2cccc([N+](=O)[O-])c21 (some centres undefined) | – | > 100 | > 100 | > 100 | – | > 100 | > 100 | > 100 | > 100 | > 100 | > 100
C#CCNC(=O)NCCCCC(NC(=O)OCc1ccccc1)C(=O)OCc1ccccc1 (centres undefined) | – | > 100 | 69.8 | 97.3 | – | > 100 | > 100 | 35.4 | > 100 | > 82.2 | > 72.5
COC(=O)CCc1c(Cc2ccc[nH]2)[nH]c(C(=O)OCc2ccccc2)c1C | 34.4 | 29.2 | 35.7 | 64.7 | 88.5 | 31.4 | 35.6 | – | 91.3 | 35.1 | –
COc1ccc(C(Cc2ccccc2)C2NC(=S)NC2=O)cc1 (centres undefined) | – | > 25 | > 25 | > 25 | > 25 | > 25 | > 25 | > 25 | > 25 | > 25 | –
CCCc1c(C(=O)OCC)[nH]c(-c2ccc(-c3[nH]c(C(=O)OCC)c(CCC)c3C(=O)OCC)s2)c1C(=O)OCC | – | > 100 | > 100 | > 100 | – | > 100 | > 100 | > 100 | > 100 | 66.3 | > 100
CCOC(=O)C(C)Sc1nnc(COc2ccccc2OC)n1-c1ccccc1 (centres undefined) | – | > 100 | > 100 | > 100 | – | > 100 | > 100 | > 100 | > 100 | 34.4 | > 100
[O-][n+]1c(CN2CCCCC2)nc2cccc3c2c1-c1ccccc1-3 | 58.4 | 32.1 | > 100 | 81.7 | – | > 100 | 46.1 | > 100 | 49.2 | 46.8 | 31.8
CCOC(=O)c1c(C)nc2c(c1-c1cn(-c3ccccc3)nc1-c1ccccc1)C(=O)c1ccccc1-2 | > 100 | > 100 | > 100 | > 100 | > 100 | > 100 | > 100 | – | > 100 | > 100 | –
Cc1ccc(-c2cc(O)c3nc4ccccc4n3c2)cc1 | > 100 | – | > 100 | > 100 | > 100 | > 100 | > 100 | > 100 | > 100 | > 100 | –
CCOC(=O)c1cc2c(OCc3ccccc3)c(OC)cc3c2c(n1)N(c1ccc(OC)cc1)C(C)C3 (centres undefined) | – | > 50 | – | > 50 | – | > 50 | > 50 | > 50 | > 50 | > 50 | > 50
Nc1cccc(S(=O)(=O)Nc2nnc(S(N)(=O)=O)s2)c1 | – | > 100 | > 100 | > 100 | – | > 100 | – | > 100 | > 100 | > 100 | > 100
Cc1ccnc2nc(N)ccc12 | > 100 | > 100 | > 100 | > 100 | > 100 | > 100 | > 100 | > 100 | > 100 | – | –
Cc1c2c(cc3c1C(=O)C(=O)C1=C3OC[C@@H]1C)C(C)(C)CCC2 | – | 26.1 | 24.7 | > 100 | – | 49.8 | 34.6 | 26.9 | 58.7 | 20.5 | 42.4
O=C(C#Cc1ccccc1)N1c2ccccc2CC1c1c[nH]c2ccccc12 (centres undefined) | – | 30 | 31.5 | 33.2 | – | 25.3 | 26.9 | 36.2 | 42.1 | 19.7 | 31.3
CCN(CC)CCCNC(=O)c1cc2cc(NC(=O)c3cc4cc([N+](=O)[O-])ccc4[nH]3)ccc2[nH]1 | > 100 | > 100 | > 100 | > 100 | – | > 100 | > 100 | – | > 100 | – | > 100
COc1ccc(C2OCCN2C)cc1 (centres undefined) | > 100 | > 100 | > 100 | > 100 | > 100 | > 100 | – | – | > 100 | > 100 | –
CC(=O)NC1=C(NCCCl)C(=O)c2ccccc2C1=O | 38.3 | 30.5 | > 100 | – | > 100 | > 100 | > 100 | – | > 100 | – | > 100
COC(=O)[C@@](C)(COC(=O)C(C)(C)C)NC(=O)OC(C)(C)C | > 100 | > 100 | > 100 | > 100 | – | > 100 | > 100 | – | > 100 | > 100 | > 100
COc1ccc2nc3c(c(NCCCN(C)C)c2c1)CCCC3 | – | 29.2 | 33 | 27.9 | – | 47 | 47.2 | 29.6 | 40.5 | 25.8 | 21.5
O=C1Nc2cc([N+](=O)[O-])c(Br)cc2C1=O | – | 60.7 | > 100 | 47.5 | – | 32.7 | 32.7 | – | 47.4 | 35.2 | –
CC(=O)OC12c3ccccc3C(c3ccccc31)C1C(=O)N(c3ccccn3)C(=O)C12 (centres undefined) | – | > 100 | > 100 | > 100 | > 100 | > 100 | > 100 | > 100 | > 100 | > 100 | > 100
CC1(C)C2CCC3(OCCO3)C1C(O)C2 (centres undefined) | – | > 100 | > 100 | > 100 | – | > 100 | – | > 100 | > 100 | > 100 | > 100
Cc1cn(C2CC(CCCO)C(CO)O2)c(=O)[nH]c1=O (centres undefined) | – | > 100 | > 100 | > 100 | – | > 100 | > 100 | > 100 | > 100 | > 100 | > 100
